Among the data in paper PMC6792352, “Limited Chemical Structural Diversity Found to Modulate Thyroid Hormone Receptor in the Tox21 Chemical Library” (Environmental Health Perspectives, 2019) are CC50 values, retold here.

This data set is described as follows: in vitro. To be noted: rat, gh3-tre-luc cells.

A word on the CC50: it is the concentration at which the toxic effect on the cells reaches its halfway point. Low values mean greater toxicity to the cells, high ones lower toxicity to the cells.

Where a name gives a salt, the structure may show the parent alone.

Consider `O=C1C(=O)c2ncccc2-c2cccnc21` [Phanquinone], for which half-maximal cytotoxicity (AC50 (uM) modified / 1000) (CC50 at 24 h) was put at 1.78 µM. Same read-out and setting: as for `C/C=C(\C)C(=O)OCc1ccccc1` [Benzyl tiglate], the figure is over 90 µM; as for `CCOC(C)=O` [Ethyl acetate], over 90 µM. The same measure, in the same setting: as for `O=C(O)Cc1cn(-c2ccccc2)nc1-c1ccc(Cl)cc1` [Lonazolac], the figure is over 50 µM.

In the case of `CC(=O)Oc1ccc(C2(c3ccc(OC(C)=O)cc3)C(=O)Nc3ccccc32)cc1` [Oxyphenisatin acetate], the CC50 at 24 h (AC50 (uM) modified / 1000) is over 50 µM. Still for that read-out and setting: the value for `CN1Cc2c(N)cccc2C(c2ccccc2)C1` (stereo not drawn) [Nomifensine] was 38.8 µM; that for `O=C(O)[C@@H]1CSCN1` [L-Thioproline] was over 50 µM. The same measure, in the same setting: as for `Nc1ccc(S(=O)(=O)c2ccc(N)cc2)cc1` [Dapsone], the figure is over 50 µM; as for `Cc1cccc(C)c1NC(=O)CN1CCN(CCCC(c2ccc(F)cc2)c2ccc(F)cc2)CC1` [Lidoflazine], 11.6 µM. Under “AC50 (uM) modified / 1000”, `C1C2OC2C2C1C1CC2C2OC12` (stereo not drawn) [Dicyclopentadiene dioxide] yielded a CC50 at 24 h of over 90 µM.

For the setting “AC50 (uM) modified / 1000”, `CN(C)CCc1c[nH]c2ccc(C[C@H]3COC(=O)N3)cc12` [Zolmitriptan] yielded a CC50 at 24 h of over 50 µM. The same measure, in the same setting: as for `O=C(CCCN1CCC(n2c(O)nc3ccccc32)CC1)c1ccc(F)cc1` [Benperidol], the figure is over 20 µM; as for `NC[C@@H]1CC[C@@H](N)[C@@H](O[C@H]2[C@H](O)[C@@H](O[C@H]3O[C@H](CO)[C@@H](O)[C@H](N)[C@H]3O)[C@H](N)C[C@@H]2N)O1` [Dibekacin], over 50 µM. Same read-out and setting: the value for `Oc1ccc([C@@H]2CNCc3c2ccc(O)c3O)cc1O` [Zelandopam] was 39.3 µM; that for `Brc1cc(Oc2cc(Br)c(Br)c(Br)c2Br)c(Br)c(Br)c1Br` [Octabromodiphenyl ether] was over 90 µM. For the compound `COC(=O)N[C@H](C(=O)N[C@@H](Cc1ccccc1)[C@@H](O)CN(Cc1ccc(-c2ccccn2)cc1)NC(=O)[C@@H](NC(=O)OC)C(C)(C)C)C(C)(C)C` [Atazanavir], the CC50 at 24 h (AC50 (uM) modified / 1000) is over 50 µM. The same measure, in the same setting: the value for `O=C(O)c1cc(Oc2ccc(C(F)(F)F)cc2Cl)ccc1[N+](=O)[O-]` [Acifluorfen-sodium] was over 90 µM.

Under “AC50 (uM) modified / 1000, Tox21_110001=Tox21_112881, viability, 1 nM T3 present, 24 h”, `NC1(c2ccccc2)CCCCC1` [1-Phenylcyclohexylamine hydrochloride] showed a CC50 at 24 h of 40.7 µM. For `CC(C)Oc1ccc2c(=O)c(-c3ccccc3)coc2c1` [Ipriflavone], the CC50 at 24 h (AC50 (uM) modified / 1000) is over 50 µM. In the case of `CCCN(CCC)c1c([N+](=O)[O-])cc(C(F)(F)F)c(N)c1[N+](=O)[O-]` [Prodiamine], the half-maximal cytotoxic concentration (CC50) at 24 h (AC50 (uM) modified / 1000) was 14.5 µM. Under “AC50 (uM) modified / 1000”, `Cc1c(N)nc([C@H](CC(N)=O)NC[C@H](N)C(N)=O)nc1C(=O)N[C@H](C(=O)N[C@H](C)[C@@H](O)[C@H](C)C(=O)N[C@H](C(=O)NCCc1nc(-c2nc(C(=O)NCCCN[C@@H](C)c3ccccc3)cs2)cs1)[C@@H](C)O)[C@@H](O[C@@H]1O[C@@H](CO)[C@@H](O)[C@H](O)[C@@H]1O[C@H]1O[C@H](CO)[C@@H](O)[C@H](OC(N)=O)[C@@H]1O)c1c[nH]cn1` [Peplomycin sulfate] had a CC50 at 24 h of 2.77 µM.

The compound `C[N+]12CCC(CC1)C(OC(=O)C(O)(c1ccccc1)c1ccccc1)C2` (stereo not drawn) [Clidinium bromide] came in with a CC50 at 24 h (AC50 (uM) modified / 1000) of over 20 µM.

On to `CCCCCCC(CO)CCCC` (stereo not drawn) [2-Butyloctan-1-ol], for which the CC50 at 24 h (AC50 (uM) modified / 1000) was over 90 µM.

Turning to `COc1cccc(O)c1O` [3-Methoxycatechol], under “AC50 (uM) modified / 1000”, the CC50 at 24 h was 70.4 µM. This lies in the double-digit micromolar range. Still for that read-out and setting: the value for `CS(=O)(=O)c1ccc([C@@H](O)[C@@H](COC(=O)CN)NC(=O)C(Cl)Cl)cc1` [Thiamphenicol glycinate hydrochloride] was over 50 µM; that for `CCOC(=O)c1ccccc1C` [Ethyl 2-methylbenzoate] was over 90 µM. Still for that read-out and setting: as for `CC(=O)O[C@@H]1C[C@@H]2CC[C@@]1(C)C2(C)C` [Bornyl acetate], the figure is over 90 µM.

In the case of `CN(C)C(=O)Nc1cccc(OC(=O)NC(C)(C)C)c1` [Karbutilate], the CC50 at 24 h (AC50 (uM) modified / 1000, Tox21_110001=Tox21_301748, viability, 1 nM T3 present, 24 h) is over 90 µM.

Turning to `CC1=Nc2ccc3ccccc3c2C1(C)C` [1,1,2-Trimethyl-1H-benzo[e]indole], the CC50 at 24 h (AC50 (uM) modified / 1000) is over 90 µM. In turn, `CCCC(=O)N1CCCN(c2nc(N)c3cc(OC)c(OC)cc3n2)CC1` [Bunazosin hydrochloride] came in with a CC50 at 24 h (AC50 (uM) modified / 1000) of over 50 µM. Still for that read-out and setting: as for `C[C@]12CCC(=O)C=C1CC[C@@H]1[C@@H]2[C@@H](O)C[C@@]2(C)[C@H]1CC[C@]2(O)C(=O)COC(=O)CCC(=O)O` [Hydrocortisone 21-hemisuccinate sodium salt], the figure is over 50 µM; as for `CCCCCCCCCCCCCCO` [1-Tetradecanol], over 90 µM. On the same count and under the same terms, the value for `CCCC(=O)O[C@]1(C(=O)COC(=O)CC)CC[C@H]2[C@@H]3CCC4=CC(=O)CC[C@]4(C)[C@H]3[C@@H](O)C[C@@]21C` [Hydrocortisone buteprate] was over 50 µM. On the same count and under the same terms, the value for `CCN(CC)CCNC(=O)COc1ccc(OC)cc1` [Mefexamide hydrochloride] was over 50 µM; that for `CNC(=O)Oc1cccc2ccccc12` [Carbaryl] was over 90 µM. For the setting “AC50 (uM) modified / 1000”, `CCC(C)OC(C)CC` (stereo not drawn) [Bis(2-butyl) ether] gave a CC50 at 24 h of over 100 µM.

Compound `CCC(C)C=O` (stereo not drawn) [2-Methylbutanal] registered a CC50 at 24 h (AC50 (uM) modified / 1000) of over 90 µM. `C[C@@H]1[C@@H]2Cc3ccc(O)cc3[C@@]1(C)CCN2CCc1ccccc1` [(+)-Phenazocine hydrobromide] gave a CC50 at 24 h (AC50 (uM) modified / 1000, Tox21_110001=Tox21_112834, viability, 1 nM T3 present, 24 h) of 67.4 µM.

The compound `CCCCCCCCCCCCN(CCCCCCCCCCCC)CCCCCCCCCCCC` [Tridodecylamine] registered a CC50 at 24 h (AC50 (uM) modified / 1000) of over 90 µM. The compound `CCN(CC)CCNC(=O)c1c(C)[nH]c(/C=C2\C(=O)Nc3ccc(F)cc32)c1C` [Sunitinib malate] displayed a CC50 at 24 h (AC50 (uM) modified / 1000) of 20.1 µM. This lies in the double-digit micromolar range. On the same count and under the same terms, as for `COC(=O)C(C)Oc1ccc(Oc2ccc(Cl)cc2Cl)cc1` (stereo not drawn) [Diclofop-methyl], the figure is over 90 µM; as for `COc1nccnc1NS(=O)(=O)c1ccc(N)cc1` [Sulfalene], over 50 µM.

Where the note is “AC50 (uM) modified / 1000”, `CCOC(=O)COC(=O)c1cc(Oc2ccc(C(F)(F)F)cc2Cl)ccc1[N+](=O)[O-]` [Fluoroglycofen-ethyl] yielded a CC50 at 24 h of over 90 µM. Turning to `CC(C)(C)c1ccccc1OP(=O)(Oc1ccccc1)Oc1ccccc1` [tert-Butylphenyl diphenyl phosphate], for the setting “AC50 (uM) modified / 1000, Tox21_110001=Tox21_202980, viability, 1 nM T3 present, 24 h”, the CC50 at 24 h is over 90 µM. Turning to `CCOP(=S)(OCC)Oc1nc(Cl)c(Cl)cc1Cl` [Chlorpyrifos], the CC50 at 24 h reads like this: (AC50 (uM) modified / 1000, Tox21_110001=Tox21_202383, viability, 1 nM T3 present, 24 h) 53.7 µM; (AC50 (uM) modified / 1000, Tox21_110001=Tox21_300148, viability, 1 nM T3 present, 24 h) 81.6 µM. `CCCOC(=O)c1ccccc1O` [Propyl salicylate] yielded a half-maximal cytotoxic concentration (CC50) at 24 h (AC50 (uM) modified / 1000) of over 50 µM. Still for that read-out and setting: as for `OCc1c[nH]c2ccccc12` [Indole-3-carbinol], the figure is over 90 µM; as for `N[C@@H](CS)C(=O)O` [l-Cysteine hydrochloride], over 90 µM. Same read-out and setting: as for `CCCCCCC=O` [Heptanal], the figure is over 90 µM. Same read-out and setting: as for `C[C@@H]1CC[C@H]2[C@@H](C)C(=O)O[C@@H]3O[C@@]4(C)CC[C@@H]1[C@]32OO4` [Artemisinin], the figure is 4.4 µM. Take `O=Cc1cc2ccccc2o1` [2-Benzofurancarboxaldehyde]: the CC50 at 24 h (AC50 (uM) modified / 1000) was over 90 µM.

In the case of `C=CC(=O)OCCC(=O)O` [2-Carboxyethyl acrylate], under “AC50 (uM) modified / 1000”, the CC50 at 24 h is over 100 µM.

`COc1ccc(CCO)cc1` [4-Methoxybenzeneethanol] yielded a CC50 at 24 h (AC50 (uM) modified / 1000) of over 90 µM. Where the note is “AC50 (uM) modified / 1000”, `O=C(OC1CCCCC1)c1ccccc1C(=O)OC1CCCCC1` [Dicyclohexyl phthalate] gave a CC50 at 24 h of 40.2 µM.

For `CC(C)(O)c1ccccc1CC[C@@H](SCC1(CC(=O)O)CC1)c1cccc(/C=C/c2ccc3ccc(Cl)cc3n2)c1` [Montelukast sodium], where the note is “AC50 (uM) modified / 1000”, the CC50 at 24 h was found to be 35.1 µM.

Turning to `OCC#CCO` [2-Butyne-1,4-diol], where the note is “AC50 (uM) modified / 1000”, the CC50 at 24 h was over 90 µM.

Compound `O=C1CCCCCCCCCCCCCCCO1` [Oxacycloheptadecan-2-one] registered a CC50 at 24 h (AC50 (uM) modified / 1000) of over 90 µM.

In turn, `CC[C@@H](C(=O)[C@@H](C)[C@@H](O)[C@H](C)CCc1ccc(C)c(O)c1C(=O)O)[C@H]1O[C@](CC)([C@H]2CC[C@](O)(CC)[C@H](C)O2)C[C@@H]1C` [Lasalocid sodium] came in with a CC50 at 24 h (AC50 (uM) modified / 1000) of 2.85 µM.

`CN(C)C(=O)C(CCN1CCC(O)(c2ccc(Cl)cc2)CC1)(c1ccccc1)c1ccccc1` [Loperamide]: under “AC50 (uM) modified / 1000”, the CC50 at 24 h was found to be 6.34 µM. `O=C(O)c1ccccc1C(=O)O` [Phthalic acid] returned a CC50 at 24 h (AC50 (uM) modified / 1000) of over 90 µM. Same read-out and setting: the value for `CN[C@@]1(c2ccccc2Cl)CCCCC1=O` [(+)-Ketamine] was over 50 µM; that for `CCCC(CCC)C(N)=O` [Valpromide] was over 50 µM; that for `CCCOc1ccc2nc(NC(=O)OC)sc2c1` [Tioxidazole] was 2.38 µM. Take `OC1CCCc2ccccc21` (stereo not drawn) [1,2,3,4-Tetrahydronaphthalen-1-ol]: the CC50 at 24 h (AC50 (uM) modified / 1000) was over 90 µM. The same measure, in the same setting: as for `CC(C)(Cl)Cl` [2,2-Dichloropropane], the figure is over 90 µM; as for `CC(C)(C)OO` [tert-Butyl hydroperoxide (70% Solution in Water)], over 90 µM. Compound `CC(CC(C)C)=NO` [N-Hydroxy-4-methylpentan-2-imine] gave a CC50 at 24 h (AC50 (uM) modified / 1000) of over 90 µM. Still for that read-out and setting: as for `Cc1[nH]c(=O)c(C#N)cc1-c1ccc2nccn2c1` [Olprinone hydrochloride], the figure is over 50 µM; as for `c1ccc(B(c2ccccc2)c2ccccc2)cc1` [Triphenylborane], over 90 µM.

The compound `O=S(=O)(O)CCN1CCN(CCO)CC1` [Sodium 2-[4-(2-hydroxyethyl)piperazin-1-yl]ethanesulfonate] gave a CC50 at 24 h (AC50 (uM) modified / 1000) of over 90 µM.

For `COc1cc(NS(=O)(=O)c2ccc(N)cc2)nc(C)n1` [Sulfamethomidine], under “AC50 (uM) modified / 1000”, the CC50 at 24 h is over 50 µM.
